In US20170226507A1, “COORDINATE CONTROL OF PATHOGENIC SIGNALING BY THE MIR-130/301 FAMILY IN PULMONARY HYPERTENSION AND FIBROPROLIFERATIVE DISEASES” (The Brigham and Women's Hospital, Inc., priority 2014, published 2017):

Columns and labels:
Type in all cases: cell-based, human
PASMCs [1] = experiment: Contraction assay of PASMCs in matrigel; conditions: conditioned media from transfected PAECs; rosiglitazone in PAECs; ambrisentan on PASMCs
Protocol: (FIG. 40A) A schematic diagram of co-culture experiments: conditioned media from transfected PAECs (miRNA, anti-miRNA, tiny-LNA or siRNA under normoxic or hypoxic conditions) were filtered and applied onto naïve PASMCs cultured in matrigel. At specific times, PASMCs or PASMC-matrigel cultures were arrested and analyzed for STAT3 activation (phosphorylation) or contraction, respectively.
50000 PASMC were embedded in 100 ul of matrix gel as previous described (Gagiolli et al) and plated into well of a 96 well plate. After 1 h at 37° C., these matrices were overlaid with 100 ul of conditioned PAECs serum-free medium (transfected with siRNA, miRNA or anti-miRNA and supplemented with Ambriesentan 10 uM). Every 12 h, medium was changed and at day 4 the gels were photographed and the relative diameter of the well and the gel were measured using ImageJ. The percentage contraction was calculated using the formula 100*(well diameter−gel diamter)/well diameter. For the co-culture experiment, conditioned media from PAEC transfected as indicated were applied on PASMCs or Fibroblast previously starved (24 h). Cells were collected at different time and analyzed by western blotting.

PAECs = experiment: Gene/miRNA expression in transfected or drug-treated PAECs (immunoblotting, RT-qPCR)
Description: (§1) Pre-miRNA oligonucleotides (pre-miR-130a, pre-miR-204, pre-miR-424, and pre-miR-503 and negative control pre-miR-NC1 and premiR-NC2, Life Technologies), anti-miRNAs oligonucleotides (anti-miR-130a and anti-miR-NC, ThermoScientific), tiny LNA oligonucleotides (tiny-130: 5′-[…]-3′ (SEQ ID NO: 3), and tiny-NC 5′-[…]-3′ (SEQ ID NO: 51), Exiqon), siRNAs (PPARγ and scrambled control, Santa Cruz Biotechnology; HIF-1α, HIF-2α, and scrambled control, Life Technologies) were commercially purchased. PAECs and PASMCs were plated and transfected 24 h later at 70-80% confluence using pre-miRNA (5 nM), anti-miRNA (20 nM), tiny-LNA (20 nM) or siRNA (25 nM) with Lipofectamine 2000 reagent (Life Technologies), according to the manufacturers' instructions.
(§2) Primary human pulmonary arterial endothelial cells (PAECs) were purchased and propagated in EGM-2 cell culture media (Lonza). Experiments were performed at passages 3 to 6. Primary human pulmonary arterial smooth muscle cells (PASMCs) were purchased and propagated in SmGM-2 cell culture media (Lonza). Experiments were performed at passages 3 to 9. HEK293T cells (American Type Culture Collection) were used and cultivated in DMEM containing 10% fetal bovine serum (FBS). Cells were cultured at 37° C. in a humidified 5% CO2 atmosphere. A modular hypoxia chamber at 0.2% oxygen, 94.8% nitrogen and 5% carbon dioxide was used during 24 h for hypoxic conditions. Cultured cells were exposed to recombinant human IL-1α at 10 ng·mL-1 (Peprotech). Recombinant human IL-6 (Peprotech) was used at 100 ng·mL-1. Rosiglitazone (Sigma) was used at 10 μM.
(§3) Mature miRNA expression was evaluated using TaqMan MicroRNA Assays (Life Technologies/Applied Biosystems) and the Applied Biosystems 7900HT Fast Real Time PCR device (Life Technologies/Applied Biosystems). Expression levels were normalized to RNU48 or snoR55 for human or mouse experiments, respectively, and calculated using the comparative Ct method (2^−ΔΔCt) as we previously described (1).
(§4) Messenger RNAs were reverse transcribed using the Multiscript RT kit (Life Technologies) to generate cDNA. cDNA was amplified via fluorescently labeled Taqman primer sets using an Applied Biosystems 7900HT Fast Real Time PCR device, as we previously described (1). Fold-change of RNA species was calculated using the formula (2^−ΔΔCt), normalized to actin expression.
(§5) Cells were lysed in RIPA buffer (Santa Cruz Biotechnology) and the protein concentration determined using a Bradford assay (Biorad). Protein lysate ([…]) were resolved by SDS-PAGE and transferred onto a PVDF membrane (Biorad). Membranes were blocked in 5% non-fat milk in TN buffer (50 mM Tris-HCl pH 7.4, 150 mM NaCl) and incubated in the presence of the primary and then secondary antibodies. After washing in TN buffer containing 0.1% Tween, immunoreactive bands were visualized with the ECL system (Amersham Biosciences). […] Primary antibodies for STAT3 (#9139) and P-STAT3 (Tyr-705; #9145) were purchased from Cell Signaling. Primary antibodies against actin (ab 3280), α-smooth-muscle-actin (ab 32575), CD31 (ab28364), and PCNA (ab 29) were obtained from Abcam. Appropriate secondary antibodies (anti-rabbit and anti-mouse) coupled to HRP were used (Santa Cruz Biotechnology).
Pre-miRNA oligonucleotides (pre-miR-130a and negative control pre-miR-NC1 and premiR-NC2), anti-miRNAs oligonucleotides (anti-miR-130a and anti-miR-NC), and custom designed tiny LNA oligonucleotides (tiny-130: 5′-[…]-3′ (SEQ ID NO: 3), and tiny-NC 5′-[…]-3′ (SEQ ID NO: 51)) were purchased from Life Technologies/Ambion, ThermoScientific/Dharmacon, and Exiqon, respectively. siRNAs for PPARγ and scrambled control were purchased from Santa Cruz Biotechnology. PAEC and PASMC were plated and transfected 24 h later at 70-80% confluence using pre-miRNA (5 nM), anti-miRNA (20 nM), tiny-LNA (20 nM) or siRNA (25 nM) and Lipofectamine 2000 reagent (Life Technologies), according to the manufacturers' instructions. […]

PASMCs [2] = experiment: Gene/miRNA expression in transfected or drug-treated PASMCs (immunoblotting, RT-qPCR)
Description: as §1, §2, §3, §4, §5

[3] = normoxia or hypoxia, compared with anti-miR-130a
[4] = tiny-LNA-130: stiffness-mediated up-regulation
[5] = transcripts 48 h after transfection

## tiny-LNA-130: fully LNA-modified tiny LNA oligonucleotide 5′-ATTGCACT-3′ (SEQ ID NO: 3) complementary to the seed region of the miR-130/301 family (all LNA, backbone and methylation of C not given here)
PASMCs [1]
  actinomyosin contraction of PASMCs: abrogated
PAECs; immunoblotting, densitometry
  PPARγ expression: increased
PAECs; [3]
  downstream gene/subordinate miRNA alterations (PPARγ, apelin, miR-424, miR-503, FGF2): reversed these downstream gene/subordinate miRNA alterations to a greater extent than inhibition of miR-130a alone
PAECs; [4]
  collagen, CTGF, and LOX: reversed
PAECs; [5]
  CCND1 expression: decreased
  CDKN1A, CDKN1B and CDKN2A expression: increased
PAECs; vs tiny-LNA-NC, transcript in hypoxia, protein in normoxia
  gene expression changes in VEGFA, EDN1 and NOS3: reversed these gene expression changes
PASMCs [2]; [3]
  downstream gene/subordinate miRNA alterations (PPARγ, STAT3, P-STAT3, miR-204): reversed such downstream gene/subordinate miRNA alterations to a greater extent than inhibition of miR-130a alone
PASMCs [2]; [4]
  collagen, CTGF, and LOX: reversed
PASMCs [2]; transcripts
  CCND1 expression: decreased
  CDKN1A, CDKN1B and CDKN2A expression: increased
PASMCs [2]; [5]
  NFATC2 and PIM1 expression: decreased
